Experimental data published in PubChem BioAssay AID179 (DTP/NCI, 2004).
Activity calls are given as the source filed them.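 Rule for the calls: active = compounds giving half or more protection of infected cells from virus-caused growth loss, again on retest; inactive = the rest.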 Where a SMILES comes first, the peptide text is derived from it. [ ]: non-standard residue; d: D form. The star is where a group is joined. Phe(4-NO2) = N[CH](Cc1ccc([N+](=O)[O-])cc1)C(=O)O; Boc = CC(C)(C)OC(=O)*

Tested on: CEM cells HIV-1 protection, formazan growth assay
Assay: NCI AIDS Antiviral Assay
Details: for IC50: measured here: growth of uninfected CEM cells
Outline: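 Five concentrations of each compound were applied to infected and uninfected human CEM cells. Protection from HIV-1 was judged from growth measured with a soluble formazan assay.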

| Structure (SMILES) | outcome | EC50 [µM] | IC50 [µM] |
| --- | --- | --- | --- |
| COc1cc([C@@H]2c3cc4c(cc3C(N)C3COC(=O)[C@@H]32)OCO4)cc(OC)c1O (some centres undefined) | inactive |  |  |
| CN(C)/C=N/c1cc(=O)n(C)c(=O)n1C | inactive |  |  |
| CC1(C)COC(c2cc3c(cc2Br)OCO3)=N1 |  | > 209 | > 209 |
| c1ccc(CC[P+](c2ccccc2)(c2ccccc2)c2ccccc2)cc1 |  | > 200 | 1.29 |
| COC(=O)C(CC1CC(=O)N(CCc2c[nH]c3ccccc23)C1)C(=O)OC (centres undefined) |  | > 191 | > 191 |
| O=C1C2=Cc3ccccc3OC2(O)Oc2ccccc21 (centres undefined) |  | > 200 | 23.4 |
| CCOC(=O)C(NC(=O)CC(C)C)(N1CCN(c2cc3c(cc2F)c(=O)c(C(=O)O)cn3C2CC2)CC1)C(F)(F)F (centres undefined) |  | > 200 | 1.91 |
| C[CH2][Ge]1([CH2]C)[CH2]CC2(CCN(CCCN(C)C)C2)C[CH2]1 |  | > 251 | 1.38 |
| COC(=O)CCC(NC(=O)OC(C)(C)C)C(=O)NC(Cc1ccc([N+](=O)[O-])cc1)C(=O)NC(CCC(=O)OC)C(=O)OC (centres undefined) (Boc-Glu(OMe)-[Phe(4-NO2)]-Glu(OMe)-OMe; configuration not given here) |  | > 100 | 47.9 |
| COc1ccc2c(c1)[C@@H](NC(C)=O)CCc1cc(OC)c(OC)c(OC)c1-2 |  | > 0.0708 | 0.011 |
| CCOC(=O)c1nc2ccccc2nc1Oc1ccc(C#N)cc1 |  | > 200 | > 200 |
| O=C1c2ccc(O)cc2OC(c2ccc(O)c(O)c2)C1O (centres undefined) |  | > 200 | 93.3 |
| C=CCn1c(N)c(C#N)c(C#N)c1-c1ccccc1 |  | > 200 | > 200 |
| CCN1OC(C)(C)C2CCC(C)CC21 (centres undefined) |  | > 1260 | > 1260 |
| O=c1c2cc(-c3ccccc3)cnc2sn1-c1ccc([N+](=O)[O-])cc1 |  | > 200 | 39.8 |
| COc1ccccc1NC(=O)C1=C(C)NC(C)=C(C(=O)Nc2ccccc2OC)C1c1ccc(N(C)C)cc1 |  | > 42.7 | 29.5 |
| CCN(C(=O)N[C@@H](Cc1ccccc1)C(=O)N[C@@H](CC(C)C)C(=O)OC)c1ccccc1 |  | 5.01 | 28.8 |
| Cc1c2ccccc2nc(CN2CCCCC2)[n+]1[O-] |  | > 200 | > 200 |
| Cc1ccc(-n2c3nc(=O)n(C)c(=O)c-3nc3ccccc32)cc1 | inactive |  |  |
| C=c1c2ccccc2oc2nc3[nH]c(N)c(C#N)c(N)c3c(=N)c12 |  | > 200 | 7.24 |
| C1CSCCSCSCCS1 |  | > 44.7 | > 44.7 |
| COc1cc(/C=C/C(=O)CC(=O)/C=C/c2ccc(O)c(OC)c2)ccc1O (tested in a mixture with another compound) |  | > 200 | 3.31 |

| Structure (SMILES) | outcome | EC50 [µM] | IC50 [µM] |
| --- | --- | --- | --- |
| COc1cc(C(=O)N2CCc3c([nH]c4c([N+](=O)[O-])c(OC)ccc34)C2C)cc(OC)c1OC (centres undefined) | inactive |  |  |
| COC(=O)C(/C(=N/N)C(=O)Nc1ccc(C)c(C)c1)c1nc2ccc(Cl)cc2[nH]c1=O (centres undefined) |  | > 214 | 135 |
| CC1CNC(c2ccc(NC(=O)Nc3cc(C(=O)Nc4ccc(C5=NC(C)CN5)cc4)ccc3C(=O)Nc3ccc(C4=NC(C)CN4)cc3)cc2)=N1 (centres undefined) |  | > 100 | > 100 |
| CCCc1cc(=O)oc2c3c(cc(OC)c12)O[C@H](C)[C@H](C)[C@@H]3O |  | > 200 | 38.9 |
| CC(=O)N1C(=O)/C(=C\C(=O)c2ccc([N+](=O)[O-])cc2)c2ccccc21 |  | > 200 | 2.82 |
| CC/C(=C(\c1ccccc1)c1ccc(OCC[N+](C)(C)C)cc1)c1ccccc1 | inactive |  |  |
| CC1CCC(=NNS(=O)(=O)c2ccc(N)cc2)CC1 (centres undefined) |  | > 129 | > 129 |
| Cc1[nH]c(-c2ccccc2)c(O)c1C(=O)OC1CC(C)CCC1C(C)C (centres undefined) |  | > 200 | 23.4 |
| NC(=O)c1ncn(C2OC(CO)C(O)C2O)c1NC(=S)NC(=O)c1ccccc1 (centres undefined) |  | > 589 | > 589 |
| O=C(CN1CCOCC1)NC1=Nc2ncccc2C(=O)NN1 |  | > 200 | 115 |
| Cn1c(=O)c2c(nc(NCC[N+](C)(C)Cc3ccc(Cl)cc3)n2C)n(C)c1=O |  | > 295 | > 295 |
| CCOC(=O)C(NC(=O)c1ccccc1)(c1ccc(S(=O)(=O)Nc2onc(C)c2C)cc1)C(F)(F)F (centres undefined) |  | > 200 | > 200 |
| C=C1CN(S(=O)(=O)c2ccc(C)cc2)CCCN(CC2CCCCC2)CCCN(S(=O)(=O)c2ccc(C)cc2)C1 |  | > 46.8 | 1.17 |
| Cc1ccc(C)c(C(=O)c2ccccc2)c1C(=O)O |  | > 200 | > 200 |
| CS(=O)(=O)CSCSSCS(C)(=O)=O |  | > 427 | 20 |
| O=C(O)c1cscc1C(=O)O |  | > 200 | > 200 |
| N#CC(NC12CC3CC(CC(C3)C1)C2)c1ccc2c(c1)OCO2 (centres undefined) | inactive |  |  |
| COc1ccc2c3c1OC1C4(CCC5C(C2)N(CC2CC2)CCC351)OCCO4 (centres undefined) |  | > 129 | > 129 |
| Cc1nc(-n2nc(-c3ccccc3)cc2-c2ccccc2)sc1C(/C=C/c1ccc([N+](=O)[O-])cc1)=N/NC(=O)c1ccncc1 |  | > 42.7 | 37.2 |
| CN1Cc2ccccc2[C@H]2C(c3ccccc3)=NN(c3ccccc3)[C@H]21 |  | > 200 | > 200 |
| Cc1ccsc1/C=N/Nc1cc(C)c2cccc(C)c2n1 |  | > 200 | 138 |

| Structure (SMILES) | outcome | EC50 [µM] | IC50 [µM] |
| --- | --- | --- | --- |
| CCOC(=O)c1cc2c(nc1N)/C(=C/c1ccccc1)CCCC2 |  | > 200 | 10.7 |
| CCN(CC)C(=Nc1ccc(Cl)c(Cl)c1)SC(NC=O)=C(Cl)Cl |  | > 200 | 19.5 |
| Cn1c2cc(O)cc(O)c2c(=O)c2c([N+](=O)[O-])cccc21 |  | > 141 | > 141 |
| COC(=O)C(Cc1ccc2c(c1)CCCC2)Cc1cc2c(cc1C(O)OC)CCC2 (centres undefined) |  | > 200 | 55 |
| CCOC(=O)COc1ccc(/C=C/C(=O)c2ccc(OC)cc2)cc1 |  | > 200 | 11.2 |
| Cn1c(=O)c2[nH]c(N=O)nc2n(C)c1=O |  | > 200 | > 200 |
| Nc1nc2ncn(CCO)c2c(=O)[nH]1 |  | > 93.3 | > 93.3 |
| CN(C)CCNC(=O)c1cc([N+](=O)[O-])ccn1 |  | > 200 | 95.5 |
| C[C@]12CCC3=NCCCN3C1=CC[C@@H]1[C@@H]2CC[C@@]2(C)[C@H]1CC[C@]2(C)O |  | > 47.9 | > 47.9 |
| COc1cccc(N=NN2CCCC2)c1 |  | > 200 | 91.2 |
| CN(C)C1C(=O)C(C(=O)NCNC(CCS(C)=O)C(=O)O)=C(O)C2(O)C(=O)C3=C(O)c4c(O)cccc4C(C)(O)C3CC12 (centres undefined) |  | > 204 | > 100 |
| OC1(c2ccccc2)c2ccccc2Oc2ccccc21 |  | > 200 | 17.4 |
| CN(C)CC1CCCCCC(CN(C)C)C1=O (centres undefined) |  | > 20 | 1.07 |
| COC(=O)C1CC2C(=O)N(c3ccccc3)C(=O)C2c2c1n(C)c1ccccc21 (centres undefined) |  | > 32.4 | > 32.4 |
| O=C(Nc1ccc(Cl)c(Cl)c1)NC(CO)(CO)CO |  | > 200 | 110 |
| O=S(=O)(O)C(O)CCCC(O)S(=O)(=O)O (centres undefined) |  | > 200 | 10.7 |
| CC(C)(C)OC(=O)NCCc1cccc2c1oc1c(CCC(=O)O)cccc12 |  | > 309 | 110 |
| O=C1CSC(c2c[nH]c3ccccc23)N1c1cccc(Cl)c1 (centres undefined) |  | > 21.9 | > 21.9 |
| CC1(C)COC(c2cccc(C(O)c3ccc(Cl)cc3)c2)=N1 (centres undefined) |  | > 200 | 38.9 |
| Nc1nc2cc[nH]c2c(=O)[nH]1 |  | > 661 | > 661 |
| COc1ccc(C(=O)Nc2ccn(CCOC(=O)c3ccc(OC)cc3)c(=O)n2)cc1 |  | > 44.7 | > 44.7 |
| c1cc(C2=NCCO2)c2ccsc2c1 |  | > 200 | 155 |

| Structure (SMILES) | outcome | EC50 [µM] | IC50 [µM] |
| --- | --- | --- | --- |
| C=CCC1C2CCC(O[Si](C(C)C)(C(C)C)C(C)C)(C(C(=O)OC)C2)C1O (centres undefined) |  | > 200 | 91.2 |
| CC(=O)N(CCc1ccccc1)C(C)(C#N)c1ccccc1 (centres undefined) |  | > 200 | > 200 |
| C=CC[P@]1(=O)O[C@H](c2ccccc2)C(C)N1C(C)C (some centres undefined) | inactive |  |  |
| CCCc1c(O)c2ccccc2[nH]c1=O |  | > 200 | > 200 |
| CCOC(=O)/C(C#N)=C/c1cccc(C)c1 |  | > 120 | > 120 |
| COc1ccc2nc3cc(Cl)ccc3c(Nc3ccc(C(=O)O)c(O)c3)c2c1 |  | > 60.3 | > 60.3 |
| O=C(CCC(=O)N/N=C/c1ccccc1O)N/N=C/c1ccccc1O | inactive |  |  |
| CCO/N=[N+](\[O-])N(CC)CC |  | > 9770 | 8710 |
| O=[N+]([O-])c1ccccc1CS(=O)(=O)c1ccccc1 | inactive |  |  |
| CCC(=O)NC(OCC1(CC)COC1)(C(F)(F)F)C(F)(F)F |  | > 200 | > 200 |
| CCC(COCC(CC)C(=O)O)C(=O)O (centres undefined) | inactive |  |  |
| CCn1cc(C(=O)O)c(=O)c2cc3c(cc21)OCO3 |  | > 38 | > 38 |
| O=[N+]([O-])c1ccc(-c2noc(-c3ccc(Cl)cc3)c2C2=NCCCN2)cc1 |  | > 35.5 | > 35.5 |
| O=C1Cc2c(-c3cccs3)cc(-c3ccccc3)nc2-c2ccccc2N1 |  | > 200 | 46.8 |
| CCCCCCCCCCCCCCCCCCCCCCCCCCCCCC=C(c1cc(Cl)c(OC)c(C(=O)OC)c1)c1cc(Cl)c(OC)c(C(=O)OC)c1 |  | > 2.24 | > 2.24 |
| CCN(CC)CCOc1ccc(C(=C2CCCCC2)c2ccc(OCCN(CC)CC)cc2)cc1 |  | > 38.9 | 2.19 |
| Cc1ccc(S(=O)(=O)N/N=C2\CCCCCCCCCCC2CN(C)C)cc1 (centres undefined) |  | > 200 | 28.2 |
| Cc1ccsc1/C=N/Nc1ccccn1 |  | > 200 | 21.4 |
| CC(=O)OCC1OC(N2C(c3ccccc3)=CC(c3cccs3)C(C#N)=C2S)C(OC(C)=O)C(OC(C)=O)C1OC(C)=O (centres undefined) |  | 81.3 | > 200 |
| CN(C)C(=S)Sc1nsc(SC(=S)N(C)C)n1 |  | > 200 | > 200 |
| N#CC(C#N)=Cc1cccc(Oc2ccccc2)c1 |  | > 29.5 | > 29.5 |
